In patent publication US8053585B2, “Protecting group for carboxylic acids that can be photolyzed by visible light” (Cornell Research Foundation, Inc., priority 2006, dated 2011):
“Also recorded” adds a separate entry of the source.

Target: T1, α1-subunit of the human glycine receptor (Homo sapiens, UniProt P23415)
T1 construct: expressed in transfected cells; host or cells: HEK 293 cells, transiently transfected (Polyfect), co-transfected with GFP plasmid as marker; cDNA from Prof; H. Betz
T1 sequence (P23415 29-457): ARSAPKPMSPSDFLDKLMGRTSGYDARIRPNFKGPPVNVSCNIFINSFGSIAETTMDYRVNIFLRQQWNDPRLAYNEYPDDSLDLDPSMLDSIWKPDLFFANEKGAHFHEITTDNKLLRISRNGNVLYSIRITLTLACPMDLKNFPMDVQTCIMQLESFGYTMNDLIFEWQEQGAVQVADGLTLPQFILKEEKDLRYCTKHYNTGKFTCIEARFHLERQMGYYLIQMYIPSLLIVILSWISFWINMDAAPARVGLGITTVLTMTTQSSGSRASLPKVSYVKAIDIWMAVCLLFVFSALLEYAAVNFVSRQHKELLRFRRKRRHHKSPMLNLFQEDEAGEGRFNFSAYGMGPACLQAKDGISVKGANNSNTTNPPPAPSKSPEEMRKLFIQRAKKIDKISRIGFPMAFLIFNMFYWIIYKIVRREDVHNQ
Assay: Whole-cell current recording with cell-flow method, HEK 293 cells expressing glycine receptor
Format: cell-based
Excerpt: In whole-cell current recording experiments with DECM-caged glutamate, HEK 293 cells stably transfected with cDNA encoding the GluR6 were used. In whole-cell current recording experiments with DECM-caged glycine, HEK 293 cells were transiently transfected with the cDNA of the α1-subunit of the human glycine receptor by using the Polyfect™ transfection reagent (Qiagen GmbH, D-40724, Hilden, Germany). The cDNA of the α1-subunit was kindly provided by Professor H. Betz (Max-Plank-Institute for brain Research, Frankfurt, Germany). The cells were co-transfected with cDNA encoding the green fluorescent protein (pGreen Lantern plasmid, Life Technologies, Gaitherberg, Md.) to detect transfected cells (Chalfie et al., “Green Fluorescent Protein as a Marker for Gene Expression,” Science 263:802-805 (1994), which is hereby incorporated by reference in its entirety).
The cells were used for electrophysiological experiments between 24 and 72 h after each passage. Whole-cell currents evoked by glutamate or glycine (100 μM) were recorded using the whole-cell configuration (Hamill et al., “Improved Patch-Clamp Techniques for High-Resolution Current Recording From Cells and Cell-Free Membrane Patches,” Pfluegers Arch 391:85-100 (1981), which is hereby incorporated by reference in its entirety) at room temperature, −60 mV, and pH 7.4. […]

SMILES: CCN(CC)c1ccc2c(COC(=O)CN)cc(=O)oc2c1 [DECM-caged glycine, (7-N,N-Diethylaminocoumarin-4-yl)-methyl-glycine-trifluoroacetate]
- whole-cell current evoked by 100 μM glycine, presence vs absence of compound (2 mM DECM-caged glycine (FIG. 10 legend), −60 mV, pH 7.4, 22° C.): does not inhibit
- biological activity at glycine receptors (inhibition or activation) (HEK293 cells expressing glycine receptors): biologically inert; also recorded: neither DECM-caged glycine nor its byproducts inhibited or activated the glycine receptors
